From PubChem BioAssay (NCI)
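Five compound concentrations were applied to cells in 96-well plates for 48 hours; endpoints were derived by simple linear interpolation of the resulting dose-response curve. GI50 = concentration required for 50% inhibition of growth. TGI is the concentration that stops growth completely.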 Where a SMILES comes first, the peptide text is derived from it. The star is where a group is joined. Boc = CC(C)(C)OC(=O)*

Experiments:
Assay in all cases: growth of human tumour cells (NCI), 48 h
A498 renal = system: A498 renal
NCI-H226 lung = system: NCI-H226 lung
RXF 393 renal = system: RXF 393 renal
CAKI-1 renal = system: CAKI-1 renal
UACC-257 melanoma = system: UACC-257 melanoma
SF-539 CNS = system: SF-539 CNS
DU-145 prostate = system: DU-145 prostate
HCC-2998 colon = system: HCC-2998 colon
HOP-92 NSCLC = system: HOP-92 NSCLC
HT29 colon = system: HT29 colon
M14 melanoma = system: M14 melanoma
SF-295 CNS = system: SF-295 CNS
OVCAR-3 ovarian = system: OVCAR-3 ovarian
K-562 leukemia = system: K-562 leukemia
OVCAR-5 ovarian = system: OVCAR-5 ovarian
CCRF-CEM leukemia = system: CCRF-CEM leukemia
SW-620 colon = system: SW-620 colon
U251 CNS = system: U251 CNS

Compound | TGI (A498 renal) [µM] | TGI (NCI-H226 lung) [µM] | TGI (RXF 393 renal) [µM] | TGI (CAKI-1 renal) [µM] | TGI (UACC-257 melanoma) [µM] | TGI (SF-539 CNS) [µM] | TGI (DU-145 prostate) [µM] | TGI (HCC-2998 colon) [µM] | TGI (HOP-92 NSCLC) [µM] | TGI (HT29 colon) [µM] | TGI (M14 melanoma) [µM] | TGI (SF-295 CNS) [µM] | TGI (OVCAR-3 ovarian) [µM] | TGI (K-562 leukemia) [µM] | TGI (OVCAR-5 ovarian) [µM] | TGI (CCRF-CEM leukemia) [µM] | TGI (SW-620 colon) [µM] | TGI (U251 CNS) [µM] | GI50 (DU-145 prostate) [µM] | GI50 (OVCAR-3 ovarian) [µM]
CC(=N/NC(=S)N1CCCCC1)/C(C)=N\NC(=S)N1CCCCC1 | 2.86 | 3 | 3.2 | 3.23 | 4.09 | 5.58 | 3.05 | 3.48 | 2.85 | 4.07 | 4.57 | 3.74 | 3.39 | 6.89 | 3.82 | – | – | – | – | –
CC1(C)N=C(/C=N/O)C(C)(C)N1O | > 100 | > 100 | > 100 | – | – | > 100 | > 100 | > 100 | > 100 | > 100 | > 100 | > 100 | > 100 | > 100 | > 100 | > 100 | > 100 | > 100 | – | –
CCOCC(NC(=O)C(CC(C)C)NC(=O)OC(C)(C)C)C(N)=O (stereo not drawn) (Boc-Leu-Ser(Et)-NH2; configuration not given here) | > 100 | > 100 | > 100 | > 100 | > 100 | > 100 | > 100 | – | > 100 | > 100 | > 100 | > 100 | > 100 | – | > 100 | > 100 | 3.27 | 2.79 | – | –
CSc1nc(O)c(/C=C2\C=Nc3ccccc32)[nH]1 | > 100 | > 100 | > 100 | – | > 100 | > 100 | > 100 | 90.6 | > 100 | > 100 | > 100 | – | > 100 | > 100 | > 100 | > 100 | > 100 | > 100 | – | –
CSc1ccc(/C=C2\N=C(c3ccccc3)N(c3nc4c(Cl)cc(Cl)cc4s3)C2=O)cc1 | 40.8 | – | 67.5 | > 100 | > 100 | > 100 | 93.7 | 94 | > 100 | 46.4 | 62.9 | 79.7 | 40 | > 100 | > 100 | 43.3 | > 100 | 37.3 | – | –
C=Cc1cc2c(cc1O)CC[C@@H]1[C@@H]2CC[C@]2(C)[C@@H](O)CC[C@@H]12 | 39.1 | 30.7 | 8.92 | 20.8 | 8.87 | 5.53 | 16.6 | 25.4 | – | 29.5 | 17.7 | 10.5 | 8.74 | 20.4 | 41.3 | 17.2 | 14.2 | 15.1 | 4.41 | 2.57
COc1ccccc1N=N/C(=N/NC(=O)c1ccc(C)cc1)c1ccc(N(CCC#N)CCC#N)cc1OC | 55.8 | > 100 | > 100 | > 100 | > 100 | – | > 100 | > 100 | 95.1 | 85.4 | > 100 | > 100 | > 100 | > 100 | > 100 | 40.9 | > 100 | > 100 | – | –
CC(=O)c1c(-c2ccccc2)c(-c2ccc(OCCN(C)C)cc2)n2ccccc12 | 39.3 | 38.3 | – | 37.1 | 28.9 | 27.1 | 31.8 | 27.7 | 23.1 | 13.6 | 30.8 | 30.9 | 32.8 | > 100 | > 100 | 61.1 | 32 | 31.3 | – | –
O=C1CC(c2ccc[nH]2)=NN1c1ccccc1 | > 100 | > 100 | > 100 | > 100 | > 100 | > 100 | > 100 | – | > 100 | > 100 | > 100 | > 100 | > 100 | > 100 | > 100 | > 100 | > 100 | > 100 | – | –
c1ccc(/N=C2\c3ccccc3CN2c2ccccn2)nc1 | > 100 | > 100 | > 100 | > 100 | > 100 | > 100 | > 100 | > 100 | 72.7 | > 100 | > 100 | > 100 | > 100 | > 100 | > 100 | – | > 100 | > 100 | – | –
CSc1nncc2[nH]cnc12 | > 100 | > 100 | > 100 | > 100 | > 100 | > 100 | > 100 | – | – | > 100 | > 100 | > 100 | > 100 | > 100 | > 100 | > 100 | > 100 | > 100 | – | –
Cc1ccc(Nc2sc(C)cc2C#N)c([N+](=O)[O-])c1 | > 100 | > 100 | > 100 | > 100 | > 100 | > 100 | > 100 | > 100 | > 100 | – | > 100 | > 100 | > 100 | > 100 | > 100 | > 100 | > 100 | > 100 | – | –
NC12CC3CC4C1CC1CC2C(C3)C4(N)C1 | > 100 | > 100 | > 100 | > 100 | > 100 | – | > 100 | – | > 100 | > 100 | > 100 | > 100 | > 100 | > 100 | > 100 | > 100 | > 100 | > 100 | – | –
